Assays:
calf thymus dsDNA = experiment: DNA titration of nucleic acid dye-based substrates and controls; assay type: binding; conditions: 1 μM in pH 7.4 TE buffer, 30-minute incubation at room temperature, excitation 485 nm, emission 530 nm
Experimental: In this example, nucleic acid dye-based caspase-3 substrates, Substrate No. 19 and Substrate No. 20, and respective control compounds, Compound No. 7 and Compound No. 24, were titrated with varying amounts of calf thymus dsDNA and the fluorescence signals of the solutions were recorded. Briefly, the substrates and the respective controls were prepared as generally described above in relation to Example 51. Multiple wells of a 96-well plate were loaded with the substrate (100 μL, 1 μM) or the respective control (100 μL, 1 μM). Each well was then titrated with 5 μL of one of the seven DNA stock solutions of 2.1, 4.1, 8.2, 16.4, 32.8 65.6 and 127.5 μg/mL concentration, respectively, in pH 7.4 TE buffer. After a 30-minute incubation at room temperature, the fluorescence reading of each well was recorded with a SpectraMax Germini XS fluorescence microplate reader (Molecular Devices Corp., Sunnyvale, Calif.), with the excitation wavelength and the emission collection wavelength set at 485 nm and 530 nm, respectively.
DNA titrations of Compound No. 21, a nucleic acid dye-based HDAC substrate, and Compound No. 23, a control associated with Compound No. 21, were titrated with varying amounts of calf thymus dsDNA in the manner generally described above in relation to Example 52.

[1] = molecular target: T1, caspase-3 activity in Jurkat cells (Homo sapiens, UniProt P42574); experiment: Detection of caspase-3 activity in live cells by flow cytometry; assay type: cell-based; conditions: for caspase-3-positive cell identification: Jurkat cells, substrate 10 μM for 15 minutes, FL1 channel
T1 construct: A flask of Jurkat cells were induced with staurosporine (1 μM) for apoptosis; endogenous in cells; host or cells: Jurkat cells induced with staurosporine
T1 sequence (P42574 29-175 limits assumed): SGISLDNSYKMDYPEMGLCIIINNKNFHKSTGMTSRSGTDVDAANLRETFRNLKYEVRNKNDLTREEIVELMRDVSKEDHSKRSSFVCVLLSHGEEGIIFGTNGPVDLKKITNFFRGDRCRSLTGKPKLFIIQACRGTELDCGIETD
T1 sequence (P42574 176-277 limits assumed): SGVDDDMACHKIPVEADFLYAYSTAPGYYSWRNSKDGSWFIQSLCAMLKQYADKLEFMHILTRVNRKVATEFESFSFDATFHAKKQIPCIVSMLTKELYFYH
Experimental: In this example, Jurkat cells were used to test whether Substrate No. 19 may be used to detect caspase-3 activity, or a lack thereof, within live cells by generating a nucleic acid dye that forms fluorescence upon binding to DNA. A flask of Jurkat cells were induced with staurosporine (1 μM) for apoptosis. Aliquots of the induced Jurkat cells were taken at 1 hour, 2.5 hours and 5 hours after induction, respectively, and aliquots of uninduced Jurkat cells, which served as negative controls, were taken at the same times. Substrate No. 19 was added to each Jurkat cell culture medium to give a final concentration of 10 μM and each resulting medium was allowed to incubate for 15 minutes before undergoing flow cytometry analysis using the FL1 channel for green fluorescence. […] For example, a stimulation time of 1 hour, 2.5 hours and 5 hours was associated with a 10%, 80% and 97% caspase-3-positive cell identification, respectively, as may be seen in the representations B, C and D of FIG. 4, respectively. One hour of staurosporine induction was required for Substrate No. 19 to reliably detect the presence of caspase-3-positive cells. Detection of intracellular caspase-3 activity via Substrate No. 19 is possible after only 15 minutes of incubation time, without necessitating cell destruction. Thus, it may be possible to continuously monitor enzymatic activity over more or less the entire course of cellular life via an enzyme substrate such as Substrate No. 19.

[2] = molecular target: T1, caspase-3 activity in Jurkat cells; experiment: Detection of caspase-3 activity in live cells by fluorescence microscopy; assay type: cell-based; conditions: Jurkat cells induced 4 hours with staurosporine (1 μM), substrate 10 μM for 15 minutes, confocal microscope, FIG. 5
Experimental: (§1) Substrate No. 19 (10 μM) was incubated for 15 minutes with Jurkat cells that had been induced for 4 hours with staurosporine (1 μM). Separately, Substrate No. 19 (10 μM) was incubated for 15 minutes with uninduced Jurkat cells, which served as a negative control. For each of the cell cultures, cells (1×10^5) were taken, pelleted and then resuspended in Annexin V binding buffer (100 μL; HEPES buffer (10 mM, pH 7.4), NaCl (140 mM) and CaCl2 (2.5 mM)) in a tube, whereupon Texas Red-conjugated Annexin V (5 μL, 50 μg/mL) (Biotium Inc., Hayward, Calif.) was added to each tube. After 15 minutes of incubation at room temperature, a cell culture (5 μL) of the induced cells or the uninduced cells was spotted onto a slide, which was then mounted with a coverslip and sealed with nail polish. The cells were examined with a 510 Meta UV/Vis confocal microscope. […] The green fluorescence is indicative of nuclear DNA staining by the nucleic acid dye that is formed from substrate cleavage via caspase-3. The red fluorescence is indicative of the staining of phosphatidylserine (PS) by the Texas Red-conjugated Annexin V, a fluorescent stain that is used to identify apoptotic cells.

caspase-3 = molecular target: T2, caspase-3 (Homo sapiens, UniProt P42574); experiment: In vitro enzymatic assay for nucleic acid dye-based substrates for caspase-3; assay type: biochemical; conditions: 10 μM, caspase-3 0.1 unit/mL, salmon sperm dsDNA 3.3 μg/mL, excitation 485 nm, emission 530 nm, FIG. 3
T2 construct: purchased Biovision Inc., Mountain View, Calif
T2 sequence (P42574 29-175 limits assumed): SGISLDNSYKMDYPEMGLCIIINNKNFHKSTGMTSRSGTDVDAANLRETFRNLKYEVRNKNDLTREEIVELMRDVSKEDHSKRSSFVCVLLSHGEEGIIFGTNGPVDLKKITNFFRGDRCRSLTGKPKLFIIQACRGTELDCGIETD
T2 sequence (P42574 176-277 limits assumed): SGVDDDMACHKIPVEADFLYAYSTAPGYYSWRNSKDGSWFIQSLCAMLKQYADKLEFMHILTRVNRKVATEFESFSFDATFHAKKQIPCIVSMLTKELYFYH
Experimental: In this example, nucleic acid dye-based caspase-3 substrates were assayed in the presence of caspase-3 and dsDNA by monitoring the fluorescence increase. In one example, Substrate No. 19 (10 μM) was incubated with caspase-3 (0.1 unit/mL) (Biovision Inc., Mountain View, Calif.) and salmon sperm dsDNA (3.3 μg/mL) in a caspase assay buffer (100 μL; HEPES buffer (50 mM, pH 7.4), NaCl (100 mM), EDTA (1 mM), CHAPS (0.1%), DTT (10 mM), PMSF (1 mM) and glycerol (10%)) in a well of a black 96-well plate. The plate was then placed in a SpectraMax Germini XS fluorescence microplate reader (Molecular Devices Corp., Sunnyvale, Calif.), with the excitation wavelength set at 485 nm and emission collection wavelength set at 530 nm, to measure the fluorescence signal over time, as shown in FIG. 3.

calf thymus DNA = experiment: Measurement of fluorescence spectra in the presence of DNA; assay type: binding; conditions: 1 μM in pH 7.4 TE buffer, excess calf thymus DNA, excitation 600 nm, FIG. 1
Experimental: Stock solutions of nucleic acid dye-based substrates and respective control compounds were prepared by dissolving each compound in DMSO at 1 mg/mL concentration. The stock solutions were diluted into a pH 7.4 buffer (TE buffer) comprising Tris (10 mM), EDTA (1 mM) and NaCl (50 mM) to give a final concentration of 1 μM. Dye solutions containing an excess amount of DNA were prepared by adding a sufficient amount of calf thymus DNA calculated to yield a ratio of greater to or equal to 50 DNA base pairs per dye molecule. A fluorescence spectrum for each dye was recorded before and after the addition of DNA using a Jasco F-750 fluorescence spectrophotometer, with the fluorescence excitation wavelength set at λA-25 nm or 600 nm, where λA is the absorption maximum for each dye in the presence or the absence of DNA, and emission collection wavelength set at 660 nm.

phosphatidylserine (PS) = experiment: Texas Red-Annexin V staining of apoptotic Jurkat cells by confocal microscopy; assay type: cell-based; conditions: Jurkat cells induced 4 hours with staurosporine (1 μM), 15 minutes of incubation at room temperature, confocal microscope, FIG. 5
Experimental: as §1

CC(=O)N[C@H](CC(=O)O)C(=O)N[C@H](CCC(=O)O)C(=O)N[C@@H](C(=O)N[C@H](CC(=O)O)C(=O)NCCNC(=O)CCCN1C=CC(=CC=Cc2sc3ccccc3[n+]2C)c2ccccc21)C(C)C [Substrate No. 20]
fluorescence response to dsDNA concentration (DNA titration) (calf thymus dsDNA): relatively insensitive to the presence of DNA

C[n+]1c(/C=C2\C=CN(CCCCCC(=O)NCCNC(=O)C(CCCCN)NC(=O)OC(C)(C)C)c3ccccc32)sc2ccccc21.[I-] (stereo not drawn) [Compound No. 23]
fluorescence response to dsDNA concentration (DNA titration) (calf thymus dsDNA): fluorescently responsive to the amount of DNA present

CC(=O)N[C@@H](CC(=O)O)C(=O)N[C@@H](CCC(=O)O)C(=O)N[C@H](C(=O)N[C@@H](CC(=O)O)C(=O)NCCNC(=O)CCCCCN1C=CC(=Cc2sc3ccccc3[n+]2C)c2ccccc21)C(C)C [Substrate No. 19]
caspase-3-positive cell identification ([1]; staurosporine (1 μM) stimulation 1 hour): 10%
caspase-3-positive cell identification ([1]; staurosporine (1 μM) stimulation 2.5 hours): 80%
caspase-3-positive cell identification ([1]; staurosporine (1 μM) stimulation 5 hours): 97%
staurosporine induction required to reliably detect caspase-3-positive cells ([1]; live Jurkat cells, staurosporine 1 μM, substrate 10 μM): One
incubation time after which detection of intracellular caspase-3 activity is possible ([1]; live Jurkat cells, without cell destruction): 15 min
fluorescence response to dsDNA concentration (DNA titration) (calf thymus dsDNA): relatively insensitive to the presence of DNA
fluorescent staining pattern of cells [2]: green fluorescence in cellular nuclei
fluorescence increase over time with caspase-3 and dsDNA (caspase-3): substrate for caspase-3 enzyme

CC(=O)NCCCCC(NC(=O)OC(C)(C)C)C(=O)NCCNC(=O)CCCCCN1C=C/C(=C\c2sc3ccccc3[n+]2C)c2ccccc21.[I-] (stereo not drawn) [Compound No. 21]
fluorescence response to dsDNA concentration (DNA titration) (calf thymus dsDNA): relatively insensitive to the presence of DNA

C[n+]1c(C=C2C=CN(CCCCCC(=O)NCCN)c3ccccc32)sc2ccccc21 [Compound No. 7]
fluorescence response to dsDNA concentration (DNA titration) (calf thymus dsDNA): fluorescently responsive to the amount of DNA present

C[n+]1c(/C=C/C=C2\C=CN(CCCC(=O)NCCN)c3ccccc32)sc2ccccc21 [Compound No. 24]
fluorescence emission in the presence of DNA, control versus substrate (calf thymus DNA): substantially more fluorescent than Substrate No. 20
fluorescence response to dsDNA concentration (DNA titration) (calf thymus dsDNA): fluorescently responsive to the amount of DNA present

B1: Texas Red-conjugated Annexin V: fluorescent stain (Biotium Inc.) that is used to identify apoptotic cells by staining phosphatidylserine (conjugate, UniProt P08758 2-320, looked up)
Annexin A5: AQVLRGTVTDFPGFDERADAETLRKAMKGLGTDEESILTLLTSRSNAQRQEISAAFKTLFGRDLLDDLKSELTGKFEKLIVALMKPSRLYDAYELKHALKGAGTNEKVLTEIIASRTPEELRAIKQVYEEEYGSSLEDDVVGDTSGYYQRMLVVLLQANRDPDAGIDEAQVEQDAQALFQAGELKWGTDEEKFITIFGTRSVSHLRKVFDKYMTISGFQIEETIDRETSGNLEQLLLAVVKSIRSIPAYLAETLYYAMKGAGTDDHTLIRVMVSRSEIDLFNIRKEFRKNFATSLYSMIKGDTSGDYKKALLLLCGEDD
modifications: Texas Red dye
notes: fluorescent stain (Biotium Inc.) that is used to identify apoptotic cells by staining phosphatidylserine
fluorescent staining pattern of cells (phosphatidylserine (PS)): red fluorescence on a cytoplasmic membrane
